PMC7024302, “Ultrashort Cationic Lipopeptides–Effect of N-Terminal Amino Acid and Fatty Acid Type on Antimicrobial Activity and Hemolysis” (Molecules, 2020)
≈ marks a conversion by molar mass, not a printed value. Residues, ends and D or L forms follow the SMILES beside them.

How the values were obtained:
[1] = tested on: P. aeruginosa ATCC 9027; assay type: cell-based, Pseudomonas aeruginosa; details: ATCC 9027, 18 h
Method in brief: (§1)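 Broth microdilution per CLSI: bacteria at 5 × 10^5 CFU/mL in MHB were exposed to lipopeptides (0.5–256 µg/mL) for 18 h at 37 °C. MIC was the lowest concentration inhibiting noticeable growth; run in triplicate.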

[2] = tested on: human red blood cells (hRBCs); assay type: cell-based; details: red cells of human, 1 h
Method in brief: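 Fresh EDTA-anticoagulated human RBCs, PBS-washed, at 4% (v/v) final were exposed to lipopeptides at 0.5–256 µg/mL for 1 h at 37 °C. Released haemoglobin in supernatant read at 540 nm; PBS as 0% and 1% Triton X-100 as 100% haemolysis. Triplicates.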

[3] = tested on: K. pneumoniae ATCC 700603; assay type: cell-based, Klebsiella pneumoniae; details: ATCC 700603, 18 h
Method in brief: as §1

[4] = tested on: A. baumannii ATCC BAA-1605; assay type: cell-based, Acinetobacter baumannii; details: ATCC BAA-1605, 18 h
Method in brief: as §1

[5] = Determination of peptide hydrophobicity with RP-HPLC (adjusted retention time); assay type: physicochemical; details: RP-HPLC C18, linear 10–55% acetonitrile over 60 min, 0.1% TFA, 25.0 °C, UV 214 nm, triplicate; for tR’: Table 3, adjusted retention time as hydrophobicity
Method in brief: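 Peptides at 1 g/L in water with 0.1% TFA run on a C18 column (3.0 × 100 mm, 5 µm). Elution with a linear 10–55% acetonitrile gradient over 60 min, 0.1% TFA in both eluents, 0.5 mL/min, 25.0 ± 0.1 °C. Detection at 214 nm, in triplicate.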

[6] = tested on: S. aureus ATCC 25923; assay type: cell-based, Staphylococcus aureus; details: ATCC 25923, 18 h
Method in brief: as §1

[7] = tested on: S. aureus ATCC 33591 (MRSA); assay type: cell-based, Staphylococcus aureus; details: ATCC 33591, 18 h
Method in brief: as §1

[8] = tested on: C. albicans ATCC 10231; assay type: cell-based, Candida albicans; details: ATCC 10231, 24 h, pH 7
[9] = tested on: K. aerogenes ATCC 13048; assay type: cell-based, Klebsiella aerogenes; details: ATCC 13048, 18 h
Method in brief: as §1

[10] = tested on: E. faecium ATCC 700221; assay type: cell-based, Enterococcus faecium; details: ATCC 700221, 18 h
Method in brief: as §1

Row | Structure (SMILES) | MIC PA [1] [µg/mL] | HC50 [2] | MIC K [3] | MIC A [4] [µg/mL] | Adjusted retention time ([5]; Table 2, nC = carbon atoms in fatty acid chain) [min] | MIC SA [6] | MIC S [7] | MIC CA [8] [µg/mL] | MIC E2 [9] | MIC E1 [10] | tR’ [5] [min]
1 | CCCCCCCCCCCCCC(=O)N[C@@H](CCCC)C(=O)N[C@@H](CCCNC(=N)N)C(=O)N[C@@H](CCCNC(=N)N)C(N)=O [compound 66, C14-NleRR-NH2] (HELM PEPTIDE1{[CCCCCCCCCCCCCC(=O)[*:2]].[Nle].R.R.[am]}$$$$V2.0) | 4 (≈ 6.13 µM) | 37.54 (±1.39) µg/mL | 32 µg/mL (≈ 49 µM) | 64 (≈ 98 µM) | 46.681 | 4 µg/mL (≈ 6.13 µM) | 8 µg/mL (≈ 12.3 µM) | 4 (≈ 6.13 µM) | 32 µg/mL (≈ 49 µM) | 8 µg/mL (≈ 12.3 µM) | –
2 | CCCCCCCCCCCC(=O)N[C@@H](CCC)C(=O)N[C@@H](CCCNC(=N)N)C(=O)N[C@@H](CCCNC(=N)N)C(N)=O [compound 69, C12-NvaRR-NH2] (HELM PEPTIDE1{[CCCCCCCCCCCC(=O)[*:2]].[Nva].R.R.[am]}$$$$V2.0) | 32 (≈ 52.4 µM) | 207.62 (±5.27) µg/mL | 256 µg/mL (≈ 419 µM) | 64 (≈ 105 µM) | – | 8 µg/mL (≈ 13.1 µM) | 16 µg/mL (≈ 26.2 µM) | 32 (≈ 52.4 µM) | 256 µg/mL (≈ 419 µM) | 16 µg/mL (≈ 26.2 µM) | 37.67
3 | CCCCCCCCCCCCCC(=O)N[C@@H](CCC)C(=O)N[C@@H](CCCNC(=N)N)C(=O)N[C@@H](CCCNC(=N)N)C(N)=O [compound 70, C14-NvaRR-NH2] (HELM PEPTIDE1{[CCCCCCCCCCCCCC(=O)[*:2]].[Nva].R.R.[am]}$$$$V2.0) | 8 (≈ 12.5 µM) | 42.04 (±1.38) µg/mL | 128 µg/mL (≈ 200 µM) | 64 (≈ 100 µM) | – | 4 µg/mL (≈ 6.26 µM) | 4 µg/mL (≈ 6.26 µM) | 4 (≈ 6.26 µM) | 128 µg/mL (≈ 200 µM) | 4 µg/mL (≈ 6.26 µM) | 44.53
4 | CCCCCCCCCCCCCC(=O)N1CCC[C@H]1C(=O)N[C@@H](CCCNC(=N)N)C(=O)N[C@@H](CCCNC(=N)N)C(N)=O [compound 74, C14-PRR-NH2] | 16 (≈ 25.1 µM) | 53.41 (±1.84) µg/mL | 256 µg/mL (≈ 402 µM) | 64 (≈ 100 µM) | – | 16 µg/mL (≈ 25.1 µM) | 8 µg/mL (≈ 12.6 µM) | 8 (≈ 12.6 µM) | 256 µg/mL (≈ 402 µM) | 8 µg/mL (≈ 12.6 µM) | 42.61
5 | CCCCCCCCCCCCCC(=O)N[C@@H](CCC(N)=O)C(=O)N[C@@H](CCCNC(=N)N)C(=O)N[C@@H](CCCNC(=N)N)C(N)=O [compound 78, C14-QRR-NH2] (HELM PEPTIDE1{[CCCCCCCCCCCCCC(=O)[*:2]].Q.R.R.[am]}$$$$V2.0) | 32 (≈ 47.9 µM) | 72.31 (±3.00) µg/mL | 256 µg/mL (≈ 383 µM) | 64 (≈ 95.8 µM) | – | 16 µg/mL (≈ 24 µM) | 16 µg/mL (≈ 24 µM) | 32 (≈ 47.9 µM) | 256 µg/mL (≈ 383 µM) | 16 µg/mL (≈ 24 µM) | 38.52
6 | CCCCCCCCCCCC(=O)N[C@@H](CCCNC(=N)N)C(=O)N[C@@H](CCCNC(=N)N)C(=O)N[C@@H](CCCNC(=N)N)C(N)=O [compound 81, C12-RRR-NH2] (HELM PEPTIDE1{[CCCCCCCCCCCC(=O)[*:2]].R.R.R.[am]}$$$$V2.0) | 128 (≈ 192 µM) | >256 µg/mL | >256 (-) µg/mL | 256 (≈ 383 µM) | – | 16 (>16) µg/mL | 32 µg/mL (≈ 47.9 µM) | 128 (≈ 192 µM) | >256 (-) µg/mL | 16 (>16) µg/mL | 30.00
7 | CCCCCCCCCCCCCC(=O)N[C@@H](CCCNC(=N)N)C(=O)N[C@@H](CCCNC(=N)N)C(=O)N[C@@H](CCCNC(=N)N)C(N)=O [compound 82, C14-RRR-NH2] (HELM PEPTIDE1{[CCCCCCCCCCCCCC(=O)[*:2]].R.R.R.[am]}$$$$V2.0) | 32 (≈ 46 µM) | 211.32 (±9.57) µg/mL | 128 µg/mL (≈ 184 µM) | 128 (≈ 184 µM) | – | 4 µg/mL (≈ 5.75 µM) | 8 µg/mL (≈ 11.5 µM) | 16 (≈ 23 µM) | 128 µg/mL (≈ 184 µM) | 8 µg/mL (≈ 11.5 µM) | 36.76
8 | CCCCCCCCCCCCCC(=O)N[C@@H](CO)C(=O)N[C@@H](CCCNC(=N)N)C(=O)N[C@@H](CCCNC(=N)N)C(N)=O [compound 86, C14-SRR-NH2] (HELM PEPTIDE1{[CCCCCCCCCCCCCC(=O)[*:2]].S.R.R.[am]}$$$$V2.0) | 32 (≈ 51 µM) | 41.54 (±1.29) µg/mL | 128 µg/mL (≈ 204 µM) | 32 (≈ 51 µM) | – | 16 µg/mL (≈ 25.5 µM) | 16 µg/mL (≈ 25.5 µM) | 32 (≈ 51 µM) | 128 µg/mL (≈ 204 µM) | 16 µg/mL (≈ 25.5 µM) | 39.72

Now from value to compound:

Row | MIC PA [1] [µg/mL] | HC50 [2] | MIC K [3] | MIC A [4] [µg/mL] | Adjusted retention time ([5]; Table 2, nC = carbon atoms in fatty acid chain) [min] | MIC SA [6] | MIC S [7] | MIC CA [8] [µg/mL] | MIC E2 [9] | MIC E1 [10] | tR’ [5] [min] | Structure (SMILES)
9 | 32 (≈ 49.9 µM) | 43.43 (±0.90) µg/mL | 128 µg/mL (≈ 200 µM) | 64 (≈ 99.9 µM) | – | 8 µg/mL (≈ 12.5 µM) | 8 µg/mL (≈ 12.5 µM) | 8 (≈ 12.5 µM) | 128 µg/mL (≈ 200 µM) | 8 µg/mL (≈ 12.5 µM) | 40.80 | CCCCCCCCCCCCCC(=O)N[C@H](C(=O)N[C@@H](CCCNC(=N)N)C(=O)N[C@@H](CCCNC(=N)N)C(N)=O)[C@@H](C)O [compound 90, C14-TRR-NH2] (HELM PEPTIDE1{[CCCCCCCCCCCCCC(=O)[*:2]].T.R.R.[am]}$$$$V2.0)
10 | 32 (≈ 52.4 µM) | 246.30 (±14.12) µg/mL | >256 (-) µg/mL | 128 (≈ 210 µM) | – | 16 µg/mL (≈ 26.2 µM) | 16 µg/mL (≈ 26.2 µM) | 32 (≈ 52.4 µM) | 256 µg/mL (≈ 419 µM) | 16 µg/mL (≈ 26.2 µM) | 37.17 | CCCCCCCCCCCC(=O)N[C@H](C(=O)N[C@@H](CCCNC(=N)N)C(=O)N[C@@H](CCCNC(=N)N)C(N)=O)C(C)C [compound 93, C12-VRR-NH2] (HELM PEPTIDE1{[CCCCCCCCCCCC(=O)[*:2]].V.R.R.[am]}$$$$V2.0)
11 | 8 (≈ 12.5 µM) | 30.73 (±0.41) µg/mL | 128 µg/mL (≈ 200 µM) | 32 (≈ 50.1 µM) | – | 4 µg/mL (≈ 6.26 µM) | 4 µg/mL (≈ 6.26 µM) | 8 (≈ 12.5 µM) | 128 µg/mL (≈ 200 µM) | 16 µg/mL (≈ 25 µM) | 44.02 | CCCCCCCCCCCCCC(=O)N[C@H](C(=O)N[C@@H](CCCNC(=N)N)C(=O)N[C@@H](CCCNC(=N)N)C(N)=O)C(C)C [compound 94, C14-VRR-NH2] (HELM PEPTIDE1{[CCCCCCCCCCCCCC(=O)[*:2]].V.R.R.[am]}$$$$V2.0)
12 | 32 (≈ 47.8 µM) | >256 µg/mL | >256 (-) µg/mL | 64 (≈ 95.5 µM) | – | 16 (>16) µg/mL | 16 (>16) µg/mL | 32 (≈ 47.8 µM) | >256 (-) µg/mL | 16 (>16) µg/mL | 34.31 | CCCCCCCCCC(=O)N[C@@H](Cc1c[nH]c2ccccc12)C(=O)N[C@@H](CCCNC(=N)N)C(=O)N[C@@H](CCCNC(=N)N)C(N)=O [compound 96, C10-WRR-NH2] (HELM PEPTIDE1{[CCCCCCCCCC(=O)[*:2]].W.R.R.[am]}$$$$V2.0)
